Entries after “also recorded” stand apart in the source; their conditions may differ.
Key:
[1] = system: complement classical pathway; assay: Classical pathway activation (C3b deposition) ELISA in human plasma with or without rabbit vitreous; assay type: biochemical; settings: in the absence of vitreous
Experimental: An alternative explanation to the one presented above is that the vitreous contains additional unidentified factors that associate with the Cp40-KKK analog. To investigate whether an unidentified vitreous factor impacts the complement inhibitory activity of lysine containing compounds, complement activation assays were performed using vitreous samples. Briefly, human plasma was incubated with OVA-anti-OVA immune-complexes in the presence of serial dilutions of the Cp40-based analogs mixed with rabbit vitreous. Levels of classical pathway activation (C3b deposition) were determined by ELISA using a polyclonal anti-human C3 antibody conjugated with HRP (MP Biomedicals, Solon, OH) (FIG. 20).

human C3b = molecular target: T1, human C3b (Homo sapiens, UniProt P01024); assay: SPR binding affinity and kinetic profile with immobilized C3b; settings: 25 °C
T1 construct: purchased Complement Technology, Inc., Tyler, TX

physchem = settings: pH 7.4, Conc. (mg/ml), solubility in PBS
[2] = Residence time in the vitreous after single intravitreal injection (WES and SPR competition assay); assay type: in vivo, cynomolgus monkeys
Experimental: To determine the residence time of mPEG(3 k)-Cp40, mPEG(1 k)-Cp40, Cp40-KK, and Cp40-KKK in the vitreous of cynomolgus macaques, these Cp40-based analogs were administered intravitreally (i.v.t.) to the animals after induction of light ketamine anesthesia (10-15 mg/kg, by intramuscular injection (i.m.)) and dilation of the pupils with tropicamide/phenylephrine ophthalmic solution (see Table 6 for study design).
For i.v.t. injection, the cynomolgus monkeys were anesthetized with a combination of ketamine (15-25 mg/kg, i.m.) and xylazine (2 mg/kg, i.m.) and the eye was cleaned with povidone-iodine solution. After application of oxybuprocaine hydrochloride solution (Benoxil® ophthalmic solution 0.4%) to the cornea as a local anesthetic, the Cp40-based analogs were administered to the animals by i.v.t. injection into either the right (G1, G3) or left (G2, G4) eye of each animal. Immediately following each injection, a single topical dose of 0.5% levofloxacin was administered. After i.v.t. injection of mPEG(3 k)-Cp40, mPEG(1 k)-Cp40, Cp40-KK, and Cp40-KKK, vitreous fluid samples (about 50 μL each) were withdrawn from Cp40-based analog-treated eyes on days 14, 28, 42, (G1, G2, G3, G4), 56, 73, 90 (G1, G2) (this was done either three times or six times). Samples were collected on ice and stored in a deep freezer (˜79.3 to −68.5° C.) until further analysis. […] Presence and concentration of the Cp40-based analogs was determined using either the simple western technology (WES, ProteinSimple, San Jose, CA), or surface plasmon resonance (SPR)-based real-time measurement of binding kinetics on a Cp40-KKK immobilized chip (see detailed methods below). Similar results with regard to the intravitreal residence time and concentration levels of the test compounds were obtained regardless of the quantification method selected.
To quantify the levels of all test compounds in vitreous samples collected at different time points following i.v.t. injection (see FIG. 15), WES analysis was performed on a WES instrument (ProteinSimple, San Jose, CA) using a 2 to 40 kDa Separation Module and Anti-Rabbit Detection Module according to the manufacturers' instructions. […] The resulting electropherograms were evaluated using the Compass software (ProteinSimple, San Jose, CA). The following criteria were used to discriminate low peptide signals from background: The peak signal-to-noise (S/N) ratio given by the software must be ≥10, and the peak height/baseline ratio (calculated manually from the peak height and baseline values given by the software) must be equal to or greater than 3. […] Shown in FIG. 15 is a representative standard curve generated using the WES system and bands obtained upon running pre-determined amounts of purified peptide spiked into rabbit vitreous samples. […]

T1 sequence (P01024 23-667 limits assumed): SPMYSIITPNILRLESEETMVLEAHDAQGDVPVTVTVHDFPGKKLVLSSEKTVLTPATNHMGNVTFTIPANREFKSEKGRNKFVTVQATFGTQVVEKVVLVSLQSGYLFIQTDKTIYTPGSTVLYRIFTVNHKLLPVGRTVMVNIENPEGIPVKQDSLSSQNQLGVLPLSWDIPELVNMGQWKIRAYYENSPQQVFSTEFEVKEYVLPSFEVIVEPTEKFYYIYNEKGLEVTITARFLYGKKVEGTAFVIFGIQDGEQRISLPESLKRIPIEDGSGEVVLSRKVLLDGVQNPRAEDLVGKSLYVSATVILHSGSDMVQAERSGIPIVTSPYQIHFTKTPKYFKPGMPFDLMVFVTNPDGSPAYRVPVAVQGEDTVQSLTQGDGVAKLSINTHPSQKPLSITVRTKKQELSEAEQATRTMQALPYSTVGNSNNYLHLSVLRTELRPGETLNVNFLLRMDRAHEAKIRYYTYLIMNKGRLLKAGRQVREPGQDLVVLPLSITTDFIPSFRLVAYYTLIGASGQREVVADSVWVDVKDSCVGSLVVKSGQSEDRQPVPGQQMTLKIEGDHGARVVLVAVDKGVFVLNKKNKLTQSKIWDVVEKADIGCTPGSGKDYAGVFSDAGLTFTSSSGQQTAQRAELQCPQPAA
T1 sequence (P01024 749-1663 partner limits assumed): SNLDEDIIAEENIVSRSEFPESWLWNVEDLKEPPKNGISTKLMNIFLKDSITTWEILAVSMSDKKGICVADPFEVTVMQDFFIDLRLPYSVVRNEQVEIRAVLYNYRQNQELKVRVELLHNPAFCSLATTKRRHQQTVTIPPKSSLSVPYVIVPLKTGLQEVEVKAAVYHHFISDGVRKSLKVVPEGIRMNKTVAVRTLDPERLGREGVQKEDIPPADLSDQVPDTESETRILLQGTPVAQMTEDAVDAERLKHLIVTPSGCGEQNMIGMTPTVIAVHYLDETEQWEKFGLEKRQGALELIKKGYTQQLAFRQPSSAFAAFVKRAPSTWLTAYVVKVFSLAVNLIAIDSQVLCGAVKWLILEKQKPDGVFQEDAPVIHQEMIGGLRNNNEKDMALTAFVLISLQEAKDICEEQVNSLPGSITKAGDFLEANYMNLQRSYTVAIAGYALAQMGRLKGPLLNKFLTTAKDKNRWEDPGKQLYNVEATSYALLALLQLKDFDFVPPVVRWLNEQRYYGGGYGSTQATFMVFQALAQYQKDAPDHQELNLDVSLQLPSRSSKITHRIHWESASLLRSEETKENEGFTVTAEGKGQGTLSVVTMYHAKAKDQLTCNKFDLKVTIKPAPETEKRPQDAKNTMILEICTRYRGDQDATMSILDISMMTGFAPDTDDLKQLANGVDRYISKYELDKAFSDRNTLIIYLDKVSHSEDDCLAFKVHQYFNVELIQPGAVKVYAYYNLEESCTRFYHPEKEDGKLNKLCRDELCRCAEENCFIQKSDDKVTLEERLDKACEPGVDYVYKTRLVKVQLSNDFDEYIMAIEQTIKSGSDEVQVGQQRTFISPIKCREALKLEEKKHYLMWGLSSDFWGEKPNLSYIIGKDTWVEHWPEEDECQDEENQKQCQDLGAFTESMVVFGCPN

**Q.** For `CC[C@H](C)[C@H](NC(=O)[C@H](N)Cc1ccc(O)cc1)C(=O)N[C@H]1CSSC[C@@H](C(=O)N(C)[C@H](C(=O)N[C@@H](CCCCN)C(=O)N[C@@H](CCCCN)C(=O)N[C@@H](CCCCN)C(N)=O)[C@@H](C)CC)NC(=O)[C@H](CCCNC(=N)N)NC(=O)[C@H](Cc2c[nH]cn2)NC(=O)[C@H](C)NC(=O)CN(C)C(=O)[C@H](Cc2c[nH]c3ccccc23)NC(=O)[C@H](CC(=O)O)NC(=O)[C@H](CCC(N)=O)NC(=O)[C@H](Cc2cn(C)c3ccccc23)NC(=O)[C@H](C(C)C)NC1=O` [Cp40-KKK, DTyr-Ile-[Cys-Val-Trp(Me)-Gln-Asp-Trp-Sar-Ala-His-Arg-Cys]-mlle-Lys-Lys-Lys—NH2], which “complement classical pathway inhibitory activity” value [1] is on record?
**A.** inhibitory activity in a dose-dependent manner

**Q.** What about the “kd, dissociation constant” value (human C3b; 1:1 Langmuir model) of the same compound?
**A.** 1.24 ± 0.42 10^−3s^−1

**Q.** And the Kd (human C3b; KD=kd/ka, read-out: KD, equilibrium dissociation constant)?
**A.** 0.21 ± 0.09 nM

**Q.** What about the solubility (physchem) of the same compound?
**A.** > 100 mg/mL

**Q.** And the “vitreous residence at C3 saturating levels” value ([2]; single i.v.t. 0.5 mg)?
**A.** ≥ 90 days

**Q.** What about the “detection in vitreous over time” value ([2]; single i.v.t. 500 μg, days 14-90) of the same compound?
**A.** detected even at day 90 post-treatment; also recorded: remained stable during the 73-day observation period

Reference: patent publication US11884747B2, “Compstatin analogs with increased solubility and improved pharmacokinetic properties” (The Trustees of the University of Pennsylvania, priority 2018, dated 2024)
